Measured values: ChEMBL document CHEMBL1201861, “Genomics of Drug Sensitity in Cancer screening data, Wellcome Trust Sanger Institute”

Legend:
Assay in all cases: cells
Format in all cases: functional, cell-based, Homo sapiens
[1] = tested on: NCI-H520; settings: Homo sapiens, NCI-H520;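 note: growth inhibition of NCI-H520 cells, measured by a cell viability assay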
Description: SANGER: Inhibition of human NCI-H520 cell growth in a cell viability assay.

[2] = tested on: HCC1569; settings: Homo sapiens, HCC1569;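 note: growth inhibition of human HCC1569 cells, read out with a cell viability assay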
Description: SANGER: Inhibition of human HCC1569 cell growth in a cell viability assay.

[3] = tested on: VM-CUB-1; settings: Homo sapiens, VM-CUB-1;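 note: cell viability assay measuring growth inhibition of the human VM-CUB-1 cell line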
Description: SANGER: Inhibition of human VM-CUB-1 cell growth in a cell viability assay.

[4] = tested on: D-566MG; settings: Homo sapiens, D-566MG
[5] = tested on: SK-MES-1; settings: Homo sapiens, SK-MES-1;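 note: growth inhibition of human SK-MES-1 cells, read out with a cell viability assay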
Description: SANGER: Inhibition of human SK-MES-1 cell growth in a cell viability assay.

[6] = tested on: SW756; settings: Homo sapiens, SW756;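 note: growth inhibition of human SW756 cells, read out with a cell viability assay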
Description: SANGER: Inhibition of human SW756 cell growth in a cell viability assay.

[7] = tested on: UO-31; settings: Homo sapiens, UO-31;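 note: cell viability assay measuring inhibition of cell growth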
Description: SANGER: Inhibition of human U031 cell growth in a cell viability assay.

[8] = tested on: COLO-792; settings: Homo sapiens, COLO-792
Description: SANGER: Inhibition of human COLO-792 cell growth in a cell viability assay.

[9] = tested on: CFPAC-1; settings: Homo sapiens, CFPAC-1;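 note: cell viability readout used to gauge suppression of CFPAC-1 cell proliferation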
Description: SANGER: Inhibition of human CFPAC-1 cell growth in a cell viability assay.

[10] = tested on: SW1990; settings: Homo sapiens, SW1990;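 note: cell growth inhibition determined with a viability assay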
Description: SANGER: Inhibition of human SW1990 cell growth in a cell viability assay.

[11] = tested on: CAL-54; settings: Homo sapiens, CAL-54;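 note: growth inhibition of CAL-54 cells, read out by a viability measurement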
Description: SANGER: Inhibition of human CAL-54 cell growth in a cell viability assay.

[12] = tested on: HCC70; settings: Homo sapiens, HCC70;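 note: cell viability assay measuring how strongly the compound suppresses proliferation of HCC70 cells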
Description: SANGER: Inhibition of human HCC70 cell growth in a cell viability assay.

[13] = tested on: T-24; settings: Homo sapiens, T-24;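 note: growth inhibition of T-24 cells, read out with a cell viability assay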
Description: SANGER: Inhibition of human T-24 cell growth in a cell viability assay.

[14] = tested on: HuO-3N1; settings: Homo sapiens, HuO-3N1;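 note: cell viability readout used to measure how strongly compounds suppress proliferation of human HuO-3N1 cells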
Description: SANGER: Inhibition of human HuO-3N1 cell growth in a cell viability assay.

[15] = tested on: SW1463; settings: Homo sapiens, SW1463;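 note: growth inhibition of SW1463 cells, determined with a cell viability assay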
Description: SANGER: Inhibition of human SW1463 cell growth in a cell viability assay.

[16] = tested on: HuP-T4; settings: Homo sapiens, HuP-T4;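 note: cell viability assay measuring how much HuP-T4 cell growth is inhibited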
Description: SANGER: Inhibition of human HuP-T4 cell growth in a cell viability assay.

[17] = tested on: SN12C; settings: Homo sapiens, SN12C;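 note: growth inhibition of human SN12C cells, measured by a cell viability assay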
Description: SANGER: Inhibition of human SN12C cell growth in a cell viability assay.

[18] = tested on: OVCAR-5; settings: Homo sapiens, OVCAR-5;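 note: growth inhibition of human OVCAR-5 cells, read out with a cell viability assay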
Description: SANGER: Inhibition of human OVCAR-5 cell growth in a cell viability assay.

[19] = tested on: 5637; settings: Homo sapiens
Description: SANGER: Inhibition of human 5637 cell growth in a cell viability assay.

[20] = tested on: NCI-H28; settings: Homo sapiens, NCI-H28;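 note: growth inhibition of human NCI-H28 cells, read out as cell viability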
Description: SANGER: Inhibition of human NCI-H28 cell growth in a cell viability assay.

[21] = tested on: EFO-27; settings: Homo sapiens, EFO-27;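 note: growth inhibition of EFO-27 cells, read out with a cell viability assay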
Description: SANGER: Inhibition of human EFO-27 cell growth in a cell viability assay.

[22] = tested on: PANC-03-27; settings: Homo sapiens, PANC-03-27
Description: SANGER: Inhibition of human PANC-03-27 cell growth in a cell viability assay.

[23] = tested on: SW1710; settings: Homo sapiens, SW1710;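 note: growth inhibition of SW1710 cells, determined with a cell viability assay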
Description: SANGER: Inhibition of human SW1710 cell growth in a cell viability assay.

[24] = tested on: KYSE-410; settings: Homo sapiens, KYSE-410;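 note: growth inhibition of KYSE-410 cells, measured through a cell viability readout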
Description: SANGER: Inhibition of human KYSE-410 cell growth in a cell viability assay.

[25] = tested on: T47D; settings: Homo sapiens, T47D;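 note: growth inhibition of human T47D cells, measured with a cell viability assay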
Description: SANGER: Inhibition of human T47D cell growth in a cell viability assay.

[26] = tested on: MOLT-13; settings: Homo sapiens, MOLT-13;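 note: IC50 for suppression of MOLT-13 cell growth, read out with a cell viability assay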
Description: SANGER: Inhibition of human MOLT-13 cell growth in a cell viability assay.

[27] = tested on: G-402; settings: Homo sapiens, G-402
Description: SANGER: Inhibition of human G-402 cell growth in a cell viability assay.

[28] = tested on: RVH-421; settings: Homo sapiens, RVH-421
Description: SANGER: Inhibition of human RVH-421 cell growth in a cell viability assay.

[29] = tested on: IGROV-1; settings: Homo sapiens, IGROV-1;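 note: reduction of IGROV-1 cell growth, read out with a viability assay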
Description: SANGER: Inhibition of human IGROV-1 cell growth in a cell viability assay.

[30] = tested on: MDA-MB-157; settings: Homo sapiens, MDA-MB-157
Description: SANGER: Inhibition of human MDA-MB-157 cell growth in a cell viability assay.

[31] = tested on: Capan-2; settings: Homo sapiens, Capan-2;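 note: Capan-2 cell growth inhibition, read out with a viability assay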
Description: SANGER: Inhibition of human Capan-2 cell growth in a cell viability assay.

[32] = tested on: LCLC-97TM1; settings: Homo sapiens, LCLC-97TM1;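 note: cell viability assay measuring growth inhibition of human LCLC-97TM1 cells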
Description: SANGER: Inhibition of human LCLC-97TM1 cell growth in a cell viability assay.

[33] = tested on: ESS-1; settings: Homo sapiens, ESS-1;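 note: growth inhibition of human ESS-1 cells, read out by a cell viability assay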
Description: SANGER: Inhibition of human ESS-1 cell growth in a cell viability assay.

[34] = tested on: EW-22; settings: Homo sapiens, EW-22;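 note: growth inhibition of the EW-22 cell line, measured with a cell viability readout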
Description: SANGER: Inhibition of human EW-22 cell growth in a cell viability assay.

[35] = tested on: CAL-12T; settings: Homo sapiens, CAL-12T;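 note: growth inhibition of human CAL-12T cells, read out with a cell viability assay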
Description: SANGER: Inhibition of human CAL-12T cell growth in a cell viability assay.

Compound	IC50 [1]	IC50 [2]	IC50 [3]	IC50 [4]	IC50 [5]	IC50 [6]	IC50 [7]	IC50 [8]	IC50 [9]	IC50 [10]	IC50 [11]	IC50 [12]	IC50 [13]	IC50 [14]	IC50 [15]	IC50 [16]	IC50 [17]	IC50 [18]	IC50 [19]	IC50 [20]	other results
CC(C)CCN1c2nc(Nc3cc(F)c(O)c(F)c3)ncc2N(C)C(=O)C1C (stereo not given)	> 5 µM	> 5 µM	> 5 µM	2.91 µM	3.73 µM	> 5 µM	> 5 µM	> 5 µM	> 5 µM	> 5 µM	> 5 µM	> 5 µM	> 5 µM	> 5 µM	> 5 µM	> 5 µM	> 5 µM	> 5 µM	4.61 µM	> 5 µM	IC50 [21]: > 5 µM; IC50 [22]: 4.3 µM; IC50 [23]: 2.31 µM; IC50 [24]: > 5 µM; IC50 [25]: > 5 µM; IC50 [26]: 3.97 µM; IC50 [27]: > 5 µM; IC50 [28]: > 5 µM; IC50 [29]: > 5 µM; IC50 [30]: 4.31 µM; IC50 [31]: > 5 µM; IC50 [32]: 2.6 µM; IC50 [33]: > 5 µM; IC50 [34]: > 5 µM; IC50 [35]: 4.06 µM
Cc1cn(-c2cc(NC(=O)c3ccc(C)c(Nc4nccc(-c5cccnc5)n4)c3)cc(C(F)(F)F)c2)cn1 [NILOTINIB]	> 2 µM	> 2 µM	> 2 µM	> 2 µM	> 2 µM	> 2 µM	> 2 µM	> 2 µM	> 2 µM	> 2 µM	> 2 µM	> 2 µM	> 2 µM	> 2 µM	> 2 µM	> 2 µM	> 2 µM	> 2 µM	> 2 µM	> 2 µM	IC50 [21]: > 2 µM; IC50 [22]: > 2 µM; IC50 [23]: > 2 µM; IC50 [24]: > 2 µM; IC50 [25]: > 2 µM; IC50 [26]: > 2 µM; IC50 [27]: > 2 µM; IC50 [28]: > 2 µM; IC50 [29]: > 2 µM; IC50 [30]: > 2 µM; IC50 [31]: > 2 µM; IC50 [32]: > 2 µM; IC50 [33]: > 2 µM; IC50 [34]: > 2 µM; IC50 [35]: > 2 µM
Nc1cccc2c1CN(C1CCC(=O)NC1=O)C2=O (stereo not given) [LENALIDOMIDE]	> 5 µM	> 5 µM	> 5 µM	> 5 µM	> 5 µM	> 5 µM	> 5 µM	> 5 µM	> 5 µM	> 5 µM	> 5 µM	> 5 µM	> 5 µM	> 5 µM	> 5 µM	> 5 µM	> 5 µM	> 5 µM	> 5 µM	> 5 µM	IC50 [21]: > 5 µM; IC50 [22]: > 5 µM; IC50 [23]: > 5 µM; IC50 [24]: > 5 µM; IC50 [25]: > 5 µM; IC50 [26]: > 5 µM; IC50 [27]: > 5 µM; IC50 [28]: > 5 µM; IC50 [29]: > 5 µM; IC50 [30]: > 5 µM; IC50 [31]: > 5 µM; IC50 [32]: > 5 µM; IC50 [33]: > 5 µM; IC50 [34]: > 5 µM; IC50 [35]: > 5 µM
